Data from patent US20150099270A1, “METHOD OF SCREENING PHARMACEUTICALS FOR DRUG INTERACTIONS AND NEPHROTOXICITY” (priority 2013, published 2015).

Assays:
[1] = human, in vivo
Source text: The purpose of this study is to quantify plasma and urinary acetyl-PAH as a measure of tubular function, in the presence of simultaneous measurement of GFR (iothalamate clearance) in healthy subjects. […] Subjects receiving drugs known to interfere with tubular secretion based on a current review of available literature, or a history of known allergic or adverse reactions to diagnostic iodine containing compounds including iothalamate, or PAH were excluded. Subjects with preexisting liver disease (including hepatitis), increased INR, liver transaminases (AST/ALT), bilirubin, serum albumin<3.0 g/dL. Iothalamate (Conray®, Mallinkrodt), and PAH (Merck) infusions were prepared on the morning of the study visit.
On the study day, each subject reported to the General Clinical Research Unit (GCRC) by 8:00 AM on study visit days. A 6-mL blood sample was be obtained for biochemistries (BUN, serum creatinine) and a spot urine sample was obtained for protein:creatinine ratio. Vital signs (heart rate, blood pressure, respiratory rate) were recorded half-hourly throughout each study visit. Subjects had intravenous catheters inserted into forearm veins of each arm for blood collection and intravenous infusion of iothalamate and PAH. […]
Throughout the study, all blood samples were collected in heparinized (green top) tubes, placed on ice immediately, centrifuged within 15 minutes (4,000 RPM), split into 2 plasma aliquots and frozen at −20° C. until analyzed. […] Urine was be placed on ice immediately after collection, and three 8 mL aliquots were frozen at −20° C. until analyzed. The total volume of urine was measured for each collection interval. A 5 mL aliquot of each IV infusate was collected and frozen at −20° C. until analyzed.
Iothalamate and PAH: Iothalamate and PAH concentrations in plasma and urine will be determined using an HPLC assay method developed in our laboratory. […] Separation is achieved using a C18 column, and effluent is monitored at a wavelength of 254 ηm. […]

HK-2 cells = assay: PAH metabolism experiment in HK-2 cells (acetyl-PAH formation quantified by HPLC); type: in vitro ADME, human
Protocol: Acetyl-PAH was quantified by HPLC using a Waters 2690 Separation Module. […] The runtime was 25 minutes for all samples.
HK2 cells were grown in 15 ml of Dulbecco's Modified Eagle Medium (DMEM)/F12 media with 10% Fetal Bovine Serum (FBS) and incubated at 37° C. with 5% CO2. After 5 days of culture, each 75 cm^2 flask of cells was transferred to 2 mls of the culture media and incubated with 200 μg/ml of PAH except for the negative control where no PAH was added. Cells were incubated for 4, 8 and 18 hours each (in triplicate) with or without PAH (control). Cells post incubation were lysed via sonication for 1 minute, then centrifuged at 14,000 RPM for 10 minutes. The supernatant was extracted and acetyl-PAH was quantified by HPLC. After 5 days of culture, the HK2 cell monolayers reached confluence (FIG. 1).
• 1. HK2 cells were grown in 15 ml of Dulbecco's Modified Eagle Medium (DMEM)/F12 media with 10% Fetal Bovine Serum (FBS) and incubated at 37° C. with 5% CO2. […]
Acetyl-PAH was quantified by HPLC using a Waters 2690 Separation Module. […] Quantification of acetyl-PAH formation was determined by calculating the area under the curve for each sample time-point, and determining the cumulative appearance over the entire incubation period (up to 18 hours).

[2] = dogs with azotemia, p=0.025; cited from earlier work

Row | SMILES | Rsec (total rate of tubular secretion) [1] | metabolism of PAH to acetyl-PAH (HK-2 cells; HK2 cells, 200 μg/ml PAH, 4, 8 and 18 hours) | renal extraction [2] | appearance of acetyl-PAH metabolite in urine and plasma [1] | mean (±SD) naPAH metabolite concentration (HK-2 cells; HK-2 cells incubated with PAH, HPLC)
1 | Nc1ccc(C(=O)NCC(=O)O)cc1 [PAH, Para-aminohippuric acid] | 382 ± 154 mL/min | time dependent fashion | 0.57 | – | –
2 | CC[N+](CC)(CC)CC [TEA, tetraethylammonium] | – | – | 0.80 | – | –
3 | CC(=O)Nc1ccc(C(=O)NCC(=O)O)cc1 [acetyl-PAH, 2-[(4-acetamidobenzoyl)amino]acetic acid] | 581 ± 191 mL/min | – | – | appears in high quantities in the urine and plasma | increased over time
